Assay results: doi:10.1101/261990v1 (biorxiv, 2018)

Assays:
[1] = target: T1, MGIC (Myoinhibitory peptide-Gated Ion Channel; ENaC5) (Platynereis dumerilii, UniProt A0A2S1B6I3); experiment: two-electrode voltage clamp, Xenopus oocytes; type: cell-based; conditions: read-out: % of control current at 50 μM
T1 sequence (A0A2S1B6I3 1-589): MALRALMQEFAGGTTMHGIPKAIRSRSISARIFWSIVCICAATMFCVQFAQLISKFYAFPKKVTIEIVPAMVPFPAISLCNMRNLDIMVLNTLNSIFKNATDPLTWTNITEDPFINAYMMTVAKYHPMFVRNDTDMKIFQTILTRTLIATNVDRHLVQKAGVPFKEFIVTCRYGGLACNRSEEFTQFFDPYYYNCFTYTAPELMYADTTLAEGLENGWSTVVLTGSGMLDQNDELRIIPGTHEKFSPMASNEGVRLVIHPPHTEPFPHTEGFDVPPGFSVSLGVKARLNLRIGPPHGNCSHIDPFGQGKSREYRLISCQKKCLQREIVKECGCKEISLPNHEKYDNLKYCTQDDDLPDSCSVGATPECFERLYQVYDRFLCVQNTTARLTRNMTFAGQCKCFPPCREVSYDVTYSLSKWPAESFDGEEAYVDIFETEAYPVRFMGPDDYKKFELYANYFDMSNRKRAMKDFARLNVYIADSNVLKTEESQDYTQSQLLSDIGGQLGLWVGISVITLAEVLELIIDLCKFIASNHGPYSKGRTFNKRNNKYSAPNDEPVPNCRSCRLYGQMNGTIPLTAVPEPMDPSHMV

[2] = target: T1, MGIC (Myoinhibitory peptide-Gated Ion Channel; ENaC5); experiment: two-electrode voltage clamp, Xenopus oocytes; type: cell-based

| remaining activity at 50 µM [1] | IC50 [2] | SMILES |
| --- | --- | --- |
| 74 ± 3% | – | NC(=NC(=O)c1nc(Cl)c(N)nc1N)NCc1ccccc1 [benzamil] |
| – | 0.73 ± 0.16 µM | N=C(N)c1ccc(/N=N/Nc2ccc(C(=N)N)cc2)cc1 [diminazene] |
| 45 ± 4% | – | NC(=NC(=O)c1nc(Cl)c(N)nc1N)Nc1ccccc1 [phenamil] |
| – | 13 ± 2 µM | N=C(N)NC(=O)c1nc(Cl)c(N)nc1N [amiloride] |
